Columns and labels:
[1] = Aqueous solubility of DNQ in PBS by LC-MS; assay type: physicochemical; conditions: pH 7.4 phosphate buffered saline, 30 min sonication, filtered
Protocol: The aqueous solubility of DNQ at pH 7.4 in phosphate buffered saline (PBS) was measured by LC-MS. DNQ was sonicated for 30 minutes in PBS then undissolved solid was removed by filtration through a 0.45 μm syringe filter and the filtrate was analyzed by LC-MS (λ=275 nm, ESI-TOF in negative mode). The optimal sonication time was determined by sonicating DNQ for 1, 5, 10, and 30 minutes. While the concentration of DNQ in solution increased substantially between 1, 5, and 10 minutes, there was only a minor difference between 10 and 30 minutes. During the 30-minute sonication the water bath warmed to 45° C. (samples were cooled to room temperature before filtration). A calibration curve was generated from 1-100 μM by dissolving DNQ in methanol to a concentration of 500 μM and making dilutions of this stock in 80:20 water:methanol. The calibration curve (measure by UV absorbance) was linear over this range; 1 μM was approximately the limit of detection. […] The solution was very pale yellow.

[2] = Formulation of DNQ compounds in HPβCD; assay type: physicochemical
From the text: This same neutral solution of DNQ in HPβCD cannot be made directly (i.e. without pH adjustment). […] The only proton on DNQ that might reasonably be deprotonated in aqueous base is the N—H. […] The protocol for formulating DNQ compounds in HPβCD is as follows: the DNQ compound is slurried in a 20% solution of HPβCD in pH 7.4 PBS and the pH is then increased by the addition of 10 M NaOH to induce dissolution of the DNQ compound. The pH is returned to pH 7.5-8.0 by the careful addition of 1 M HCl. A 3.3 mM solution of the DNQ compound can be made by this method which is stable at least 24 hours. This represents a 30-fold increase in solubility of DNQ over PBS alone. The inventors initially chose a 20% HPβCD solution.

[3] = molecular target: NQO1 (Homo sapiens, UniProt P15559); experiment: NQO1-catalyzed futile redox cycle / processing in vitro; assay type: biochemical; conditions: compared with β-lap
[4] = system: NQO1 positive tumor cell lines MC38, TC-1 and Ag104Ld; assay type: cell-based; conditions: MC38 and B16 NQO1 cells, β-lap 3 hr, catalase 1000 U/ml, survival 48 hr later
Protocol: (FIG. 1A) NQO1 positive tumor cell lines MC38, TC-1 and Ag104Ld and NQO1 negative cell lines Panc02 and B16 grown in 48-well plates were treated with β-lap (0-8 μM) for a 3 hr followed by washing and replacing medium. Cell viability was determined by Sulforhodamine B (SRB) Assay 4 days later. […] (FIG. 1C) MC38 cells with CRISPR-based NQO1 Knockout (MC38 NQO1KO #5) planted in 96-well plates were exposed to β-lap for 3 hr and cell survival was assessed 48 hr later. […] (FIG. 1E) MC38 cells were exposed to a lethal dose of β-lap (4 μM) for indicated times, then stained with 7-AAD and Annexin V followed by flow cytometry analysis. […] (FIG. 1H) MC38 and B16 NQO1 #1 cells were exposed to β-lap for a 3 hr. Catalase (1000 U/ml) was added and cell survival was assessed 48 hr later. (FIG. 1I) C57BL/6 mice (n=5/group) were transplanted with MC38 cells and treated with β-lap (0.03 mg, 0.1 mg or 0.3 mg, intratumorally; or 25 mg/kg, i.v.) every other day for four times. […] Tumor growth was monitored twice a week.
(FIG. 8A) NQO1 expression in multiple murine tumor lines was immunoblotted as indicated. […] Drugs were removed and survival assessed 5 days later. (FIG. 8C) Relative H2O2 levels were assessed in various cells treated with β-lap for 3 h at the indicated doses using CellRox-Glo. […] (FIG. 8D) TC-1 cells exposure to β-lap for 12 h, later PARP-1 and Caspase-3 levels were analyzed by western blotting assay. […]
(FIGS. 14A-C) NQO1 cells MC38 (A) and TC-1 (B) and NQO1^− cells B16 (C) were treated for 2 h with various doses of IB-DNQ±DIC (50 μM). Drugs were removed and survival assessed 6 days later. […] (FIGS. 14E-F) Relative NAD^+ (E) or ATP (F) levels were assessed in TC-1 cells exposed to various doses of IB-DNQ for 2 h. […] Comet tail lengths in a.u. were monitored at indicated time; and DSBs quantified by γH2AX foci/nuclei using immunofluorescence at indicated time (FIG. 14H). […]
(FIG. 21A) Viability of murine cell lines following IB-DNQ treatment for 4 h. […] (FIGS. 21D-E) DNA double strand break was assessed via comet assay (FIG. 21D) and γH2AX foci/nuclei immunofluorescence (FIG. 21E). […]

NQO1, sequence (P15559 whole entry, species assumed): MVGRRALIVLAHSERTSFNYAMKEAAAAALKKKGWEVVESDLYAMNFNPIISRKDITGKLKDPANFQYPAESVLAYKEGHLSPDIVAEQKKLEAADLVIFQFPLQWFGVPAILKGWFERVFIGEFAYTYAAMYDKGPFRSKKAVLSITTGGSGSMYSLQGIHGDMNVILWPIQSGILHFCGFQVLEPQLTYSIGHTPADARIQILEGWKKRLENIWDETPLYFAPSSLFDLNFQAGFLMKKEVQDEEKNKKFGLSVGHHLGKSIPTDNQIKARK

solubility of DNQ in PBS [1] [µM] | stability of the HPβCD solution ([2]; 3.3 mM solution in 20% HPβCD) | increase in solubility over PBS alone ([2]; 20% HPβCD) [fold] | concentration of solution that can be made in HPβCD ([2]; 20% HPβCD in pH 7.4 PBS, pH raised with NaOH then returned to pH 7.5-8.0) [mM] | concentration of solution permitted by 40% HPβCD ([2]; 40% HPβCD, concentration increases linearly with HPβCD) [mM] | efficiency of processing by NQO1 in vitro [3] | Molecule | effect of H2O2 scavenging on β-lap lethality [4]
115 | at least 24 hours | 30 | 3.3 | 6.6 | much more efficiently than β-lap | Cc1cc(=O)[nH]c2c1C(=O)c1c(C)cc(=O)n(C)c1C2=O [DNQ, Deoxynyboquinone] | –
– | – | – | – | – | – | Catalase | significantly spared β-lap-mediated lethality

Reference: patent publication US20220160703A1, “TUMOR-SELECTIVE COMBINATION THERAPY” (The Board of Regents of The University of Texas System, priority 2019, published 2022)
